Assay results taken from patent publication US20080085244A1, “Methods for identifying and using amyloid-inhibitory compounds” (Wyeth, priority 1999, published 2008).
Like-named read-outs stand apart in the source and are kept apart here.

What was measured:
brain Aβ = experiment: Brain Aβ levels in ovariectomized APP transgenic rodents; assay type: in vivo, transgenic mice and rats (human APP); settings: ovx APP transgenic rodents; approaching the levels found in intact animals
Description: Preparation of Brain Extracts.
Detection of sAPPα, flAPP, Aβ40 and Aβ42.

[1] = Uterine weight in ovariectomized APP transgenic rodents; assay type: in vivo, transgenic mice and rats (human APP); settings: ovx APP transgenic rodents, E2 in chow 10 days, compared to untreated ovx
Description: (§1) Transgenic APP and APP/PS rodents. Transgenic animals relevant to Alzheimer's Disease have been reviewed (Seabrook and Rosahl, Neuropharmacology, 1999, 38:1-17; see, Detailed Description, supra). Both mice and rats have been made transgenic for APP, for PS1 and for both genes, and with wild-type and FAD mutant forms of the genes,. One group of these animals is ovariectomized. 17β-Estradiol (E2) is purchased from Sigma (St. Louis, Mo.). Animals are fed ad libitum in a controlled lighting environment, using a casine-based, soy-free diet, as described in Example 1. […] E2 is administered per os by powdering the hormone in the soy-free chow. All animals are weighed at the beginning prior to treatment. Average daily food intake is determined prior to treatment as well.
(§2) Tissue collection. After treatment, all animals are sacrificed by decapitation. Trunk blood is collected for determination of E2 levels. Uteri are removed and weighed to establish the presence of atrophy due to estrogen deficiency or E2-induced hypertrophy. Brains are immediately removed and the cerebellum dissected away. The brain is divided into hemispheres which are snap-frozen and stored at −80° C.

Aβ40 and Aβ42 peptides [2] = settings: physiological concentrations; human primary neuronal (embryonic cerebral cortex) cultures; cited from earlier work
[3] = Uterine weight (E2-induced hypertrophy) in ovariectomized guinea pigs; assay type: in vivo, guinea pig
Procedure: Maintenance of animals and treatment. Ovariectomized (ovx) and intact female guinea pigs were purchased from Hilltop Laboratories (Scottsdale, Pa.); ovx animals were 8 weeks old at the time of surgery. 17β-estradiol (E2) was purchased from Sigma (St. Louis, Mo.). Throughout the study, the animals were fed ad libitum in a controlled lighting environment (12 h/12 h light/dark cycles). After the surgery, the ovx guinea pigs were put on a casein-based, soy-free diet (Purina, Richmond, Ind.) to exclude the presence of phytosteroids in the diet. The intact animals also began receiving soy-free food at approximately 8 weeks of age. […] E2 was administered per os by powdering the hormone into the soy-free chow. Prior to the beginning of the treatment, all animals were weighed. The average daily food intake for each animal using this particular diet was determined in a preliminary experiment.
Tissue collection. At the end of the treatment, all animals were sacrificed by decapitation. Trunk blood was collected for determination of E2 levels in the serum by radioimmunoassay (Diagnostic Products Laboratory). Uteri were removed and weighed to establish E2-induced hypertrophy. The brains were immediately removed, and the cerebellum was dissected away from each brain. The rest of the brain was divided into hemispheres which were snap-frozen and stored at −80° C.
Seven ovx guinea pigs (8 weeks old at the time of ovx) were used. After ovx, the animals were fed soy-free, casein-based diet to avoid the consumption of estrogenic phytosteroids. […] E2 was administered per os by powdering the hormone into the soy-free chow. […] After the treatment, all animals were sacrificed, and blood, uteri, and brains were collected for analysis. Uterine weights and serum E2 levels were determined to document the hormonal status. The levels of Aβ40, Aβ42, and sAPPα in brain tissue were determined using Aβ40- and Aβ42-specific ELISA assays and quantitative immunoblotting, respectively, as described in Methods.
At the end of the E2 treatment, all animals were sacrificed by decapitation, and blood, uteri, and brains were isolated and subjected to analysis.

[4] = Serum E2 levels in ovariectomized APP transgenic rodents; assay type: in vivo, transgenic mice and rats (human APP); settings: ovx APP transgenic rodents, E2 in chow 10 days, compared to untreated ovx
Description: as §1, §2

Aβ40 and Aβ42 peptides [5] = settings: physiological concentrations; rodent primary neuronal (embryonic cerebral cortex) cultures; cited from earlier work
brain Aβ (Aβ40, Aβ42) = experiment: Brain Aβ40, Aβ42 and total Aβ levels by ELISA of DEA brain extracts of ovariectomized guinea pigs; assay type: in vivo, guinea pig
Procedure: Maintenance of animals and treatment. Ovariectomized (ovx) and intact female guinea pigs were purchased from Hilltop Laboratories (Scottsdale, Pa.); ovx animals were 8 weeks old at the time of surgery. […] Throughout the study, the animals were fed ad libitum in a controlled lighting environment (12 h/12 h light/dark cycles). After the surgery, the ovx guinea pigs were put on a casein-based, soy-free diet (Purina, Richmond, Ind.) to exclude the presence of phytosteroids in the diet. The intact animals also began receiving soy-free food at approximately 8 weeks of age. […] Prior to the beginning of the treatment, all animals were weighed. The average daily food intake for each animal using this particular diet was determined in a preliminary experiment.
Tissue collection. At the end of the treatment, all animals were sacrificed by decapitation. […] The brains were immediately removed, and the cerebellum was dissected away from each brain. The rest of the brain was divided into hemispheres which were snap-frozen and stored at −80° C.
Preparation of Brain Extracts. Soluble Proteins from the Brains were Recovered using a modification of an established protocol (Savage et al., J. Neurosci., 1998, 18:1743-52). Briefly, the hemispheres were homogenized in 0.2% diethylamine (DEA)/50 mM NaCl at 1:10 w/v ratio, with 5-6 strokes of a Dounce homogenizer. The DEA homogenate was centrifuged for 90 min at 100,000 g. The DEA supernatants were neutralized to pH about 8.0 by addition of 1/10th vol. of 0.5M Tris-Cl pH 6.8, then aliquoted and snap-frozen. The pellets of the DEA extracts were solubilized in 2% SDS/PBS containing a cocktail of protease inhibitors (“Complete”, Boehringer Mannheim, Germany), sonicated and boiled. The protein concentrations of the DEA and SDS supernatants were determined using the BCA reagent assay kit (Pierce, Rockford, Ill.).
Detection of sAPPα, flAPP, Aβ40 and Aβ42. The amino acid sequence of APP from guinea pigs is 97% identical to the human APP homologue and the Aβ region is 100% identical to human Aβ (Beck et al., Biochim. Biophys. Acta, 1997, 1351:17-21), thus enabling use of well characterized Aβ antibodies to study the effects of estrogen on APP metabolism.
The levels of Aβ40 and Aβ42 were determined by Aβ40- and Aβ42-specific ELISA assays (Mehta et al, Neurosci. Lett., 1998, 241:13-16). For each animal, the levels of Aβ40, Aβ42, and total Aβ were standardized to brain tissue weight and expressed as ng (Aβ)/g (brain tissue, wet weight). In all experiments, animals were coded prior to tissue collection, and the treatment status of each animal was unknown to the investigators at the time of the assays.
Seven ovx guinea pigs (8 weeks old at the time of ovx) were used. After ovx, the animals were fed soy-free, casein-based diet to avoid the consumption of estrogenic phytosteroids. […] After the treatment, all animals were sacrificed, and blood, uteri, and brains were collected for analysis. […] The levels of Aβ40, Aβ42, and sAPPα in brain tissue were determined using Aβ40- and Aβ42-specific ELISA assays and quantitative immunoblotting, respectively, as described in Methods.

[6] = ovx + high-dose E2, 5 mg E2/kg BW/day per os, 10 days
[7] = ovx + low-dose E2, 1 mg E2/kg BW/day per os, 10 days

## C[C@]12CC[C@@H]3c4ccc(O)cc4CC[C@H]3[C@@H]1CC[C@@H]2O [E2, 17β-estradiol]
Brain Aβ
  levels of brain Aβ after E2 treatment: decrease
[1]
  uterine effect of oral E2: uterine hypertrophy
Aβ40 and Aβ42 peptides [2]
  levels of Aβ40 and Aβ42 peptides released: decreased
[3]; first experiment, 1 mg E2/kg BW/day per os, 10 days, p=0.0003
  increase in uterine weight, ovx+E2 group compared to ovx group: greater than 3 fold
[3]; high-dose E2 for 10 days, weights did not exceed the low-dose group
  state of uteri: uterine hypertrophy
[3]; low-dose E2 for 10 days, weights comparable to or higher than intact group
  state of uteri: hypertrophied
[3]; [6]
  Uterine weight mean +/− SEM: 1.03 ± 0.08 g
  Uterine weight median: 1.055 g
[3]; [7]
  Uterine weight mean +/− SEM: 1.4 ± 0.18 g
  Uterine weight median: 1.37 g
[4]
  serum E2 levels after oral E2: dramatic increase
Aβ40 and Aβ42 peptides [5]
  levels of Aβ40 and Aβ42 peptides released: decreased
Brain Aβ (Aβ40, Aβ42); first experiment, 1 mg E2/kg BW/day per os, 10 days, p=0.09
  average decrease in total Aβ levels in brain compared to ovx group: 20%
Brain Aβ (Aβ40, Aβ42); [6]
  Total Aβ (median): 2.094 ngAβ/g brain tissue
  Total Aβ mean +/− SEM: 1.998 +/− 0.175 ngAβ/g brain tissue
Brain Aβ (Aβ40, Aβ42); [7]
  Total Aβ (median): 2.063 ngAβ/g brain tissue
  Total Aβ mean +/− SEM: 2.023 +/− 0.134 ngAβ/g brain tissue
Brain Aβ (Aβ40, Aβ42); ovx guinea pigs, E2 for ten days beginning 8 weeks after ovx, p<0.01
  average decrease in ovx-associated increase in brain Aβ levels (summary statement): 20%
Brain Aβ (Aβ40, Aβ42); second experiment, low-dose E2 10 days, p<0.01
  average decrease for Aβ40 compared to ovx: 18%
Brain Aβ (Aβ40, Aβ42); second experiment, low-dose E2 10 days, p=0.033
  average decrease for Aβ42 compared to ovx: 21%
Brain Aβ (Aβ40, Aβ42); second experiment, low-dose E2 (1 mg/kg BW/day) 10 days, p<0.01
  average decrease of total brain Aβ levels compared to ovx: 18%
